Measured values taken from patent publication US20130324606A1, “Ester Derivatives of Bimatoprost Compositions and Methods” (ALLERGAN, INC., priority 2011, published 2013).

Assays:
[1] = In vitro human skin penetration (Franz diffusion chamber); format: in vitro ADME; details: FIGS. 14A-14C, 6, 24, 48 hr
[2] = Compound distribution in mouse skin by MALDI-MS imaging; format: in vivo
Method: In order to determine the penetration, accumulation and/or differential distribution of bimatoprost and compounds disclosed herein upon dermal administration, MALDI-MS (matrix assisted laser desorption ionization mass spectroscopy) imaging was conducted on explanted samples of mouse skin after topical dermal administration.
MALDI-MS imaging was conducted on mouse skin strips after administration of bimatoprost or compound disclosed herein once daily for 3 days. Samples of mouse skin were recovered 4 hr after day-3 dosing of compound. Dermal administration was conducted with vehicle, 0.03% bimatoprost, 3% bimatoprost, 0.03% Cmpd IVa, and 3% Cmpd IVa.
FIG. 16A depicts a typical explanted sample of mouse skin for these studies, wherein Cmpd IVa was applied via dermal administration. FIG. 16B depicts the result of MALDI-MS imaging. The intensity of each pixel within FIG. 16B reflects the concentration of Cmpd IVa at the corresponding point in the image depicted in FIG. 16A. FIG. 16C depicts a representative mass spectrum, corresponding to the region of FIG. 16B indicated by the white circle within FIG. 16B. Accordingly, each pixel of the image of FIG. 16B has an associated mass spectrum, providing the amounts of bimatoprost or other administered compound or metabolite thereof.

mouse skin = assay: Pathology assessment of mouse hair regrowth model; format: in vivo, mice; details: histology, 0.03% active, vehicle control still in growth phase
Text: Histological samples from test subjects employed in the studies described in Example 12 were obtained for pathology assessment.

[3] = microAmes mutagenesis screen; format: cell-based; details: with or without metabolic activation
Text: Cmpds IVa, IIIb, and IVb were subjected to the microAmes screen, as known in the art.

[4] = system: reconstructed human epidermis (RHE); assay: In vitro dermal irritation screening in reconstructed human epidermis; format: cell-based; details: concentration 0.03%, Formulation A vehicle
Method: In vitro irritation screening assays were conducted for compounds described herein. Test system was the reconstructed human epidermis (RHE), as known in the art. Single dosing was employed, and endpoints were evaluated as a function of time up to 24-hrs. Endpoints were tissue viability and IL-1α release.
Test compounds included Cmpds IVa (0.03%), IIIb (0.03%), IVb (0.03%), bimatoprost (0.03%), minoxidil (5%, foam), and minoxidil (5%, solution). Administration of Cmpds IVa, IIIb, IVb and bimatoprost employed the vehicle of Formulation A. See Table 1 above. Administration of minoxidil employed minoxidil vehicle with formulation 20% H2O, 50% propylene glycol, and 30% ethanol.

[5] = Partitioning in artificial sebum; format: physicochemical
Method: Compounds bimatoprost, Cmpd IVa, and Cmpd IIIb were added to aqueous solution (1 mL, 2-20 ug/mL), with and without 1-20 mg artificial sebum. Samples were shaken for 16 hr at 37° C. Samples were then centrifuged (8000 RPM) for 15 min at room temperature, prior to collection of the aqueous solution. Samples were analyzed for concentration of compound without artificial sebum (i.e., Co) and with artificial sebum (i.e., Ci) by mass spectroscopy. Artificial sebum and water partition coefficient (Ksebum) was expressed as the concentration of drug in 1 g of artificial sebum divided by the concentration of drug in 1 g of aqueous solution, and was calculated as Ksebum=(Co−Ci)Waqueous/(Ci×Wsebum) (Eqn. 1), where W represents weight.
Artificial sebum was prepared as follows: 15% (w/w) squalene, 15% spermaceti, 10% coconut oil, 1.5% oleic acid, 5% palmitic acid, 2.4% cholesterol oleate, 10% paraffin wax, 10% olive oil, 25% cottonseed oil, 5% palmitoleic acid, 1.2% cholesterol. The melting point of the semi-liquid was 37° C.

[6] = Formulation and stability studies; format: physicochemical; details: variations of Formulation A, 0.03% active, pH 4, 5, 6 and 7; 25, 40 and 60° C.; zero time and 80-days
Method: Stability over time of compounds disclosed herein was determined in formulation as a function of temperature and pH. Variations of Formulation A described herein were employed wherein the target concentration of active agent was 0.03%, and the pH was varied at pH 4, 5, 6 and 7. Temperatures of 25° C., 40° C. and 60° C. were maintained during the experiment. Samples were evaluated at zero time and 80-days.
Cmpds IVa, IIIb, and IVb for evaluated for stability.
FIGS. 1A-1B, 2A-2B, and 3A-3B depict histograms of relative concentrations of test compounds (arbitrary scale) at zero time or 80-days. FIG. 1A depicts a histogram of the stability profile of Cmpd IVa as a function of pH and temperature. FIG. 1B depicts a histogram of the formation of bimatoprost as a function of pH and temperature after 80-days for Cmpd IVa. FIG. 2A depicts a histogram of the stability profile of Cmpd IVb as a function of pH and temperature. FIG. 2B depicts a histogram of the formation of bimatoprost as a function of pH and temperature after 80-days for Cmpd IVb. FIG. 3A depicts a histogram of the stability profile of Cmpd IIIb as a function of pH and temperature. FIG. 3B depicts a histogram of the formation of bimatoprost as a function of pH and temperature after 80-days for Cmpd IIIb.

[7] = In vitro human skin penetration (Franz diffusion chamber); format: in vitro ADME
Text: Test material: Dermatomed ex vivo human cadaver posterior trunk skin on 1.0 cm^2 Franz diffusion chamber as known in the art. Test size: 3 skin donors (obtained from New York Firefighters Skin Bank), 3 replicates per donor per formulation. Test formulations: 0.03% active agent (Cmpd IVa, Cmpd IIIb, Cmpd IVb) in Formulation A; control formulation: bimatoprost at 0.03% in Formulation A. Dosing regimen: receptor fluid at 2, 4, 24, and 48 hrs; SC/epidermis and dermis at 48 hrs. Sample analysis: LC/MS-MS to detect bimatoprost and Cmpds IVa, IIIb and IVb.

[8] = Dermal tolerability in rats; format: in vivo; details: female rats
Method: Female rats were administered either vehicle or one of Cmpds IVa, IIIb, or IVb daily for 8 days. The administered dose was 3 mg/kg/day, at a concentration of 3 mg/mL. Observed data were body weight, viability, food consumption, and dermal observation (skin reaction grading), as known in the art. The vehicle was Formulation A. See Table 1 above.

[9] = dermal 3 mg/kg/day daily for 8 days, Formulation A

- conversion to bimatoprost in the receptor chamber solution [1]: observed to convert to bimatoprost
- detectability in mouse skin by MALDI-MS imaging ([2]; after topical dermal administration at 0.03%): detectable
- skin penetration of 3.0% compound compared with 3.0% bimatoprost ([2]; topical dermal administration, MALDI-MS): similar
- phase in which the majority of compound remains ([5]; artificial sebum / aqueous solution): remain in the aqueous phase
- Ave. Ksebum (artificial sebum and water partition coefficient) ([5]; n = 4, 16 hr at 37° C.): 5.1
- stability in formulation [6]: stable in formulation
- penetration flux relative to bimatoprost ([7]; 0.03% in Formulation A, FIG. 13B): greater than that for bimatoprost
- Percentage Dose Applied, Receptor Chamber Solution, Prodrug ([7]; 0.03% in Formulation A, Franz chamber, dosed compound): 4.3 Percentage Dose Applied
- Percentage Dose Applied, Upper ⅓ Dermis, Prodrug ([7]; 0.03% in Formulation A, dermis at 48 hrs, dosed compound): 3.8 Percentage Dose Applied
- conversion to bimatoprost in the SC/Epi/Dermis layers ([7]; FIG. 15A): converted to bimatoprost
- amount of active agent in the upper third of the dermis relative to bimatoprost ([7]; FIG. 15B): less than observed for bimatoprost
SMILES: CCNC(=O)CCC/C=C\C[C@@H]1[C@@H](/C=C/[C@H](CCc2ccccc2)OC(C)=O)[C@H](O)C[C@@H]1O [Cmpd IVa, 15-acetyl-bimatoprost]
- hair cycle phase at day-42 (mouse skin): returned to the resting phase
- mutagenicity in microAmes screen [3]: not mutagenic
- potential for irritation of the human skin [4]: no indication of potential for irritation
- skin penetration (cumulative amount in receptor solution) relative to bimatoprost ([7]; 0.03% in Formulation A, FIG. 13A): significantly greater than for bimatoprost
- change in food consumption and body weight gain (in words) ([8]; 3 mg/kg/day daily for 8 days): no significant change in food consumption or body weight gain
- dermal observation: signs of irritation ([8]; 3 mg/kg/day, days 2-4): minimal and transient signs of irritation
- Body Weight Gain (g) Mean ± SD [8, 9]: 9.0 ± 3.0 g
- Food Consumption (g) Mean ± SD [8, 9]: 21.14 ± 1.08 g
